In series [1] the test system is SMN2 minigene mRNA (SMN2-A minigene) in HEK293H cells. As to the kind of experiment: SMN2 minigene mRNA splicing RT-qPCR assay in cultured cells. Type of series: cell-based, human. The following applies: Homo sapiens, HEK293-H; concentration increasing full length SMN2 mRNA 1.5-fold relative to vehicle-treated cells; HEK293H cells with SMN2-A minigene, 24 hours, 7-point concentration data; read-out: EC1.5x for production of full length SMN2 mRNA. In outline:
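EC1.5× values derive from a 24 h treatment of SMN2-A minigene HEK293H cells and GAPDH-normalized RT-qPCR of exon 7-included minigene mRNA relative to vehicle-treated cells.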
On the technique in general: Real-time PCR tracks product formation cycle by cycle.

For series [2], the system named is Smn protein in SMA patient fibroblast cells (GM03813). Briefly: Smn protein assay in cultured cells (SMN HTRF). The series is classed as cell-based, human. The following applies: SMA patient fibroblast cells, 48 hours; for maximum fold (Fold) increase of Smn protein: 7-point concentration data, fold relative to vehicle control; for EC1.5x for Smn protein expression: 7-point concentration curve, SMN HTRF, concentration producing 1.5 times Smn protein vs DMSO vehicle control. In outline: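 Cells were cultured 72 h, seeded at 5,000/well and dosed with seven concentrations (3.16-fold apart) for 48 h. HTRF on lysates, read at 665 and 620 nm, gave blank-corrected ΔF values relative to DMSO. Potency is reported as EC1.5×, efficacy as maximal fold Smn increase.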
In general terms: TR-FRET usually uses a lanthanide donor and a delayed reading to cut background.

Where only a bound is given, the exact number is not on record here.

As for `Cc1cn2nc(-c3cc(=O)n4cc(N5CCC(N(C)C)CC5)cc(C)c4n3)cc2c(C)n1` [Compound 459, 7-[4-(dimethylamino)piperidin-1-yl]-2-(4,6-dimethylpyrazolo[1,5-a]pyrazin-2-yl)-9-methyl-4H-pyrido[1,2-a]pyrimidin-4-one], the melting point was in the range of 231 to 241 °C. Besides, in series [1], the EC (1.5-fold increase) is under 0.1 µM. In series [2], the “maximum fold (Fold) increase of Smn protein” value (from here on “maximum fold (Fold) increase”) was “*** (a fold increase between >1.35 and ≤1.5 is indicated by three stars (***))”.
In turn, `Cc1cn2cc(-c3ccc4nc(C5CCN(C)CC5)cc(=O)n4c3)ccc2n1` [Compound 460, 7-(2-methylimidazo[1,2-a]pyridin-6-yl)-2-(1-methylpiperidin-4-yl)-4H-pyrido[1,2-a]pyrimidin-4-one] showed a melting point of 227 to 230 °C. For the same compound, in series [1], the EC (1.5-fold increase) fell in the range of 0.1 to 0.3 µM. In series [2], the “EC1.5x for Smn protein expression” value is “*** (an EC1.5× between >0.3 μM and ≤1 μM is indicated by three stars (***))”; the “maximum fold (Fold) increase” value is “**** (a fold increase between >1.5 and ≤1.65 is indicated by four stars (****))”.
`Cc1cn2cc(-c3ccc4nc(C5CCN(C(C)C)CC5)cc(=O)n4c3)ccc2n1` [Compound 461, 7-(2-methylimidazo[1,2-a]pyridin-6-yl)-2-[1-(propan-2-yl)piperidin-4-yl]-4H-pyrido[1,2-a]pyrimidin-4-one] had a melting point of 215 to 218 °C. In addition, in series [1], the EC (1.5-fold increase) lay in the range of 0.3 to 1 µM. In series [2], the “EC1.5x for Smn protein expression” value was “** (an EC1.5× between >1 μM and ≤3 μM is indicated by two stars (**))”; the “maximum fold (Fold) increase” value is “**** (a fold increase between >1.5 and ≤1.65 is indicated by four stars (****))”.
On to `Cc1cn2cc(-c3ccc4nc(C5CCN(C)CC5)cc(=O)n4c3)cc(F)c2n1` [Compound 462, 7-(8-fluoro-2-methylimidazo[1,2-a]pyridin-6-yl)-2-(1-methylpiperidin-4-yl)-4H-pyrido[1,2-a]pyrimidin-4-one], for which the melting point was in the range of 235 to 238 °C. Besides, the EC (1.5-fold increase) in series [1] is under 0.1 µM. Besides, in series [2], the “EC1.5x for Smn protein expression” value is given as “**** (an EC1.5x≤0.3 μM is indicated by four stars (****))” and the “maximum fold (Fold) increase” value is listed as “***** (a fold increase >1.65 is indicated by five stars (*****))”.
With `CCN1CC=C(c2ccc3nc(-c4ccc5c(cnn5C)c4)cc(=O)n3c2)CC1` [Compound 463, 7-(1-ethyl-1,2,3,6-tetrahydropyridin-4-yl)-2-(1-methyl-1H-indazol-5-yl)-4H-pyrido[1,2-a]pyrimidin-4-one], the melting point fell in the range of 172 to 174 °C. The EC (1.5-fold increase) in series [1] was under 0.1 µM. In addition, in series [2], the “EC1.5x for Smn protein expression” value is “*** (an EC1.5× between >0.3 μM and ≤1 μM is indicated by three stars (***))”; the “maximum fold (Fold) increase” value is listed as “***** (a fold increase >1.65 is indicated by five stars (*****))”.
In turn, `CCCN1CC=C(c2ccc3nc(-c4ccc5c(cnn5C)c4)cc(=O)n3c2)CC1` [Compound 464, 2-(1-methyl-1H-indazol-5-yl)-7-(1-propyl-1,2,3,6-tetrahydropyridin-4-yl)-4H-pyrido[1,2-a]pyrimidin-4-one] displayed a melting point of 152 to 154 °C. Besides, the EC (1.5-fold increase) in series [1] was in the range of 0.1 to 0.3 µM. Further, in series [2], the “EC1.5x for Smn protein expression” value is “** (an EC1.5× between >1 μM and ≤3 μM is indicated by two stars (**))”; the “maximum fold (Fold) increase” value was “**** (a fold increase between >1.5 and ≤1.65 is indicated by four stars (****))”.
Turning to `CN(C)c1ccc(-c2cc(=O)n3cc(C4CCNCC4)ccc3n2)cn1` [Compound 465, 2-[6-(dimethylamino)pyridin-3-yl]-7-(piperidin-4-yl)-4H-pyrido[1,2-a]pyrimidin-4-one], the melting point was in the range of 208 to 210 °C. Further, in series [1], the EC (1.5-fold increase) lay in the range of 0.3 to 1 µM. In addition, the “maximum fold (Fold) increase” value in series [2] is “*** (a fold increase between >1.35 and ≤1.5 is indicated by three stars (***))”.

Usually melting point stands for the temperature, or range, at which the solid turns liquid.

These data come from patent publication US11753407B2, “Compounds for treating spinal muscular atrophy” (PTC Therapeutics, Inc., priority 2012, dated 2023).
